{"source": "patent US20100221763A1", "about": "“Specific Acceptors for Transferases to Saccharides and Method for Obtaining and Using Same” (Health Research, Inc, priority 2005, published 2010)", "key": {"[1]": {"test_system": "β-GlcNAc:β1,4GalNAc-T of colon tumor CC9338", "test": "β-GlcNAc:β1,4GalNAc-T assay, colon tumor extract", "type": "biochemical, human", "details": "for b) β-GlcNAc:β1,4GalNAc-T activity: incorporation of radioactive sugar: other acceptors, 1 mg protein of the tissue extract", "method": "(§1) Colon tumor tissue (CC9338) and breast tumor tissue (BC9400) were obtained during surgical procedures at Roswell Park Cancer Institute and stored frozen within 1 h at −70° C. The tissues were homogenized at 4° C. with 4 volumes of 0.1M Tris Maleate […] 0.1% NaN3 using kinematica. After adjusting the concentration of Triton X-100 to 2%, these homogenates were mixed in the cold room for 1 h using Speci-Mix (Thermolyne) and then centrifuged at 20,000 g for 1 h at 4° C. The clear fat-free supernatant was stored frozen at −20° C. until use. Aliquots of 10 μL from this extract were used in assays run in duplicates. Glycosyltransferase activity in cell lysate was determined by mixing the lysates with acceptor and radiolabeled donor (monosaccharide) under the reaction conditions detailed below, followed by separation of un-reacted donor from the radioactive product using anionic or hydrophobic chromatography. In all cases, the radioactive content of isolated products was determined by using 3a70 scintillation cocktail (Research Products International, Mount Prospect, Ill.) and a Beckman LS6500 scintillation counter. Controls for each assay contained the reaction mixture with everything except the acceptor. All assays were run in duplicate.\n(§2) The acceptors used for measuring the glycosyltransferase and sulfotransferase activities are given in Table I. The following are the conditions for individual enzymatic assays. Reaction temperature in all cases was 37° C. α2,3- and α2,6 sialytransferase (ST) assay reactions proceeded for 2 h in a mixture containing 100 mM sodium cacodylate buffer (pH 6.0), 7.5 mM acceptor, CMP-[9-^3H]NeuAc (typically 0.2 μCi) and 10 μl cell extract in a total volume of 20 μl [Chandrasekaran et al., 1995]. βGlcNAc:β1,4Gal-T and αGalNAc:β1,3Gal-T assay mixtures in duplicate contained 0.1M Hepes-NaOH pH 7.0, 7 mM ATP, 20 mM Mn acetate, 1 mM UDP-Gal, UDP [^14C]Gal (0.05 μCi; 327mCi/mmol; Amersham), 0.5 mM acceptor (unless otherwise stated) and the enzyme in a total volume of 20 μL. It was incubated for 4 h [Chandrasekaran et al., 2001]. βGlcNAc:β1,4GalNAc-T assay mixtures in duplicate contained 0.1M Hepes-NaOH pH 7.0, 7 mM ATP, 20 mM Mn acetate. UDP [^3H] GalNAc (0.20 μCi; 7.8 Ci/mmol: New England Nuclear Corp.) 7.5 mM acceptor (unless otherwise stated) and the enzyme in a total volume of 20 μL and incubated for 4 h [Chandrasekaran et al., 2001].\n(§3) Dowex-1-C1 or Sep-Pak C18 cartridges were used to isolate radiolabeled product from the reaction mixture. For GalT, GalNAc-T and FT assays, the incubation mixture was diluted with 1 ml water and passed through a 1 ml Dowex-1-C1 column [Chandrasekaran et al., 1996; Chandrasekaran et al., 2001]. The column was washed twice with 1 ml of water. The breakthrough and the water wash contained the [^14C]-galactosylated or [^14C]-fucosylated products formed with neutral acceptors. 3 ml of 0.1M NaCl was used to obtain [^14C]-fucosylated products from sialylated acceptors after water elution. For sialytransferase assays, the radioactive products from benzylglycosides were separated by hydrophobic chromatography on Sep-Pak C18 cartridge (Waters, Milford, Mass.), and elution of the product was done with 3 ml methanol [Palcic et al., 1988]. For sulfotransferase assays, elution of the [^35S]-sulfated compound from Dowex-1-C1 column was achieved by 3 ml of 0.2M NaCl [Chandrasekaran et al., 2004]."}, "[2]": {"test_system": "β-GlcNAc:β1,4Gal-T of breast tumor BC9400", "test": "β-GlcNAc:β1,4Gal-T assay, breast tumor extract", "type": "biochemical, human", "details": "for a) β-GlcNAc:β1,4Gal-T activity: incorporation of radioactive sugar: other acceptors, 1 mg protein of the tissue extract", "method": "as §1, §2, §3"}, "[3]": {"test_system": "β-GlcNAc:β1,4Gal-T of colon tumor CC9338", "test": "β-GlcNAc:β1,4Gal-T assay, colon tumor extract", "type": "biochemical, human", "details": "for a) β-GlcNAc:β1,4Gal-T activity: incorporation of radioactive sugar: other acceptors, 1 mg protein of the tissue extract", "method": "as §1, §2, §3"}, "[4]": {"test_system": "β-GlcNAc:β1,4GalNAc-T of breast tumor BC9400", "test": "β-GlcNAc:β1,4GalNAc-T assay, breast tumor extract", "type": "biochemical, human", "details": "for b) β-GlcNAc:β1,4GalNAc-T activity: incorporation of radioactive sugar: other acceptors, 1 mg protein of the tissue extract", "method": "as §1, §2, §3"}, "Siglec 4 (MAG)": {"test_system": "Siglec 4 (MAG)", "details": "Blixt et al. (49); cited from earlier work"}, "L-Selectin": {"molecular_target": "L-Selectin (Homo sapiens, UniProt P14151)", "sequence (P14151 39-372, species assumed)": "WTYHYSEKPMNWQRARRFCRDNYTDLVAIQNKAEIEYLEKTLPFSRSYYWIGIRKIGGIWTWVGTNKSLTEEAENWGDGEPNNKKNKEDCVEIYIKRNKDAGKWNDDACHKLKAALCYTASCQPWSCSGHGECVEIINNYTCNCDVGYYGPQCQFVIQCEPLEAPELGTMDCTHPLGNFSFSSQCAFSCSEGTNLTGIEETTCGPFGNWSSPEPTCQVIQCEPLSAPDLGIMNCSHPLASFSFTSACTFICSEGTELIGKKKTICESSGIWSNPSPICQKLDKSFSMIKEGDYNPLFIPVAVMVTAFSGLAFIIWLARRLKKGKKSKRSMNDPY", "details": "compared to NeuAcα2,3Galβ1,4(Fucα1,3)GlcNAcβ-O-Me (sialyl Lewis-x); cited from earlier work"}, "P-Selectin": {"molecular_target": "P-Selectin (Homo sapiens, UniProt P16109)", "sequence (P16109 42-830, species assumed)": "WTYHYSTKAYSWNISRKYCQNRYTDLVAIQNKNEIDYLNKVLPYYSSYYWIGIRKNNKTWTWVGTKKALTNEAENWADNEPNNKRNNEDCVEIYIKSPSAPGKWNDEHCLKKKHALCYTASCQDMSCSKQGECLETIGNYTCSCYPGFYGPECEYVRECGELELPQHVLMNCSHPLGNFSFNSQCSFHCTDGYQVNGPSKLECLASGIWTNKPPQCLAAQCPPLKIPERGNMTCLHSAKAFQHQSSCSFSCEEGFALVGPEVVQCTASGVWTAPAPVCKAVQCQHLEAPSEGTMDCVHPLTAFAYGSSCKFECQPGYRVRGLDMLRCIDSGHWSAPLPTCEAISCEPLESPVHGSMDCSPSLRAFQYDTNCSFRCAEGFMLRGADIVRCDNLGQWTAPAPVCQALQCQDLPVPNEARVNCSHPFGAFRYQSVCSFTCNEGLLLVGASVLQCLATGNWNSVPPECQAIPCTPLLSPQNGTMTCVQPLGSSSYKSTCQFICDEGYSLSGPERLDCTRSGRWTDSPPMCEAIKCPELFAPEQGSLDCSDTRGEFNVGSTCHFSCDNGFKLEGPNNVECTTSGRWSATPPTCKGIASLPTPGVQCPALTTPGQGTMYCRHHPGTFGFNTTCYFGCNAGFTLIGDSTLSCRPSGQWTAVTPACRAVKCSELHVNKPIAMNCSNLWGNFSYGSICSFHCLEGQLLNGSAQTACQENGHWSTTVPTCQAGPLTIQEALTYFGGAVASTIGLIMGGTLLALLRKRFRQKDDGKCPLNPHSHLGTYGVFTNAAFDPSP", "details": "compared to NeuAcα2,3Galβ1,4(Fucα1,3)GlcNAcβ-O-Me (sialyl Lewis-x); cited from earlier work"}, "[5]": {"test_system": "α1,2-L-FT plus α1,4-L-FT of colon tumor CC9338", "test": "α1,2-L-FT plus α1,4-L-FT assay, colon tumor extract", "type": "biochemical, human", "details": "1 mg protein of the tissue extract", "method": "as §1, with “duplicate. […]” for “duplicate.”"}, "[6]": {"test_system": "α1,2-L-FT plus α1,4-L-FT of breast tumor BC9400", "test": "α1,2-L-FT plus α1,4-L-FT assay, breast tumor extract", "type": "biochemical, human", "details": "1 mg protein of the tissue extract", "method": "as §1, with “duplicate. […]” for “duplicate.”"}, "LNCaP α2,3(O)ST": {"test_system": "LNCaP α2,3(O)ST", "test": "Sialyltransferase assay with LNCaP cell extract", "type": "biochemical, human", "details": "Table I; acceptor 7.5 mM; 100% = 30930 CPM (3-O-MeGalβ1,4GlcNAcβ1,6(Galβ1,3)GalNAcα-O-Bn)", "in_short": "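LNCaP Triton X-100 extract (5 mg protein/ml; 0.1M Tris-maleate pH6.3) incubated with acceptor (typically 7.5 mM) and CMP-[9-3H]NeuAc (typically 0.2 μCi) in 0.1M Na cacodylate pH6.0, 2 h at 37 °C, in duplicate. Radioactive product separated on Dowex-1-formate, Sep-Pak C18 or Biogel P2 and counted by scintillation; blank without acceptor subtracted.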"}, "[7]": {"molecular_target": "T1, Rat recombinant α2,3(O)ST (Rattus norvegicus, UniProt Q11205)", "T1 construct": "purchased Calbiochem", "T1 sequence (Q11205 1-350)": "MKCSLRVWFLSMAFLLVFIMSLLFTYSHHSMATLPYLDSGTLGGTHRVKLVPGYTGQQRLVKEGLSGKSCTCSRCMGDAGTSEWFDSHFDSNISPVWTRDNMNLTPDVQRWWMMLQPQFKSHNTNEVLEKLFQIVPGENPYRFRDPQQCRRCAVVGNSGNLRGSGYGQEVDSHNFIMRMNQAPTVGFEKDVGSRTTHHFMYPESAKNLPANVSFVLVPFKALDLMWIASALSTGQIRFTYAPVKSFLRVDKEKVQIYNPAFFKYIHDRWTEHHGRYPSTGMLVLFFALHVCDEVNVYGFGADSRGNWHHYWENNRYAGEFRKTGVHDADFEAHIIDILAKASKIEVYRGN", "test": "Sialyltransferase assay with cloned α2,3(O)ST", "type": "biochemical", "details": "Table I; acceptor 7.5 mM; 100% = 40560 CPM (3-O-MeGalβ1,4GlcNAcβ1,6(Galβ1,3)GalNAcα-O-Bn)"}, "[8]": {"details": "relative to Gal-T activity with the same acceptor"}, "[9]": {"details": "Gal-T activity with the same acceptor = 100.0%"}}}
{"smiles": "CO[C@@H]1O[C@H](CO)[C@H](O)[C@H](O[C@@H]2O[C@H](CO)[C@@H](O)[C@H](O)[C@H]2NC(C)=O)[C@H]1O", "note": "[GlcNAcβ1,3Galβ-O-Me]", "values": [{"measurement": "b) β-GlcNAc:β1,4GalNAc-T activity: incorporation of radioactive sugar", "setting": "[1]", "result": 20.9, "unit": "CPM × 10^−3"}, {"measurement": "a) β-GlcNAc:β1,4Gal-T activity: incorporation of radioactive sugar", "setting": "[2]", "result": 338.5, "unit": "CPM × 10^−3"}, {"measurement": "a) β-GlcNAc:β1,4Gal-T activity: incorporation of radioactive sugar", "setting": "[3]", "result": 247.9, "unit": "CPM × 10^−3"}, {"measurement": "b) β-GlcNAc:β1,4GalNAc-T activity: incorporation of radioactive sugar", "setting": "[4]", "result": 60.9, "unit": "CPM × 10^−3"}]}
{"smiles": "CC(=O)NC1C(O)CC(OC2C(O)C(CO)OC(OC3C(O)C(CO)OC(OC(C)C(N)C(=O)O)C3NC(C)=O)C2O)(C(=O)O)OC1C(O)C(O)CO", "note": "(stereo not shown) [NeuAcα2,3Galβ1,3GalNAcα-O-Thr]", "values": [{"measurement": "fold more potent than NeuAcα2,6GalNAcα-O-Thr in inhibiting Siglec 4 (MAG) binding", "setting": "Siglec 4 (MAG)", "result": 600, "unit": "fold"}]}
{"smiles": "C=CCO[C@H]1O[C@H](CO[C@@H]2O[C@H](CO)[C@@H](O)[C@H](O)[C@H]2NC(C)=O)[C@@H](O)[C@H](O)[C@@H]1O", "note": "[GlcNAcβ1,6Manα-O—Al]", "values": [{"measurement": "b) β-GlcNAc:β1,4GalNAc-T activity: incorporation of radioactive sugar", "setting": "[1]", "result": 54.5, "unit": "CPM × 10^−3"}, {"measurement": "b) β-GlcNAc:β1,4GalNAc-T activity, percent in parentheses", "setting": "[1]; [8]", "result": 11.0, "unit": "%"}, {"measurement": "a) β-GlcNAc:β1,4Gal-T activity, percent in parentheses", "setting": "[2]; [9]", "result": 100.0, "unit": "%"}, {"measurement": "a) β-GlcNAc:β1,4Gal-T activity: incorporation of radioactive sugar", "setting": "[2]", "result": 443.6, "unit": "CPM × 10^−3"}, {"measurement": "a) β-GlcNAc:β1,4Gal-T activity, percent in parentheses", "setting": "[3]; [9]", "result": 100.0, "unit": "%"}, {"measurement": "a) β-GlcNAc:β1,4Gal-T activity: incorporation of radioactive sugar", "setting": "[3]", "result": 493.4, "unit": "CPM × 10^−3"}, {"measurement": "b) β-GlcNAc:β1,4GalNAc-T activity: incorporation of radioactive sugar", "setting": "[4]", "result": 99.2, "unit": "CPM × 10^−3"}, {"measurement": "b) β-GlcNAc:β1,4GalNAc-T activity, percent in parentheses", "setting": "[4]; [8]", "result": 22.4, "unit": "%"}]}
{"smiles": "COC1OC(COC2OC(CO)C(OC3OC(CO)C(O)C(O)C3NC(C)=O)C(OC3OC(C)C(O)C(O)C3O)C2NC(C)=O)C(O)C(OC2OC(CO)C(O)C(OC3(C(=O)O)CC(O)C(NC(C)=O)C(C(O)C(O)CO)O3)C2O)C1NC(C)=O", "note": "(stereo not shown) [GalNAcβ1,4(Fucα1,3)GlcNAcβ1,6(NeuAcα2,3Galβ1,3) GalNAcα-O-Me]", "values": [{"measurement": "fold better inhibitor of L-Selectin binding", "setting": "L-Selectin", "result": "5-6 fold"}, {"measurement": "fold better inhibitor of P-Selectin binding", "setting": "P-Selectin", "result": "5-6 fold"}]}
{"smiles": "CO[C@@H]1O[C@H](CO)[C@H](O)[C@H](O[C@@H]2O[C@H](CO)[C@@H](O)[C@H](O[C@@H]3O[C@H](CO)[C@H](O)[C@H](O)[C@H]3O)[C@H]2NC(C)=O)[C@H]1O", "note": "[Galβ1,3GlcNAcβ1,3Galβ-O-Me]", "values": [{"measurement": "α1,2-L-FT plus α1,4-L-FT activity: incorporation of radioactive sugar", "setting": "[5]", "result": 578.9, "unit": "CPM × 10^−3"}, {"measurement": "α1,2-L-FT plus α1,4-L-FT activity: incorporation of radioactive sugar", "setting": "[6]", "result": 16.8, "unit": "CPM × 10^−3"}, {"measurement": "Sialyltransferase activity (%) LNCaP α2,3(O)ST", "setting": "LNCaP α2,3(O)ST", "result": 1.4, "unit": "%"}, {"measurement": "Sialyltransferase activity (%) Cloned α2,3(O)ST", "setting": "[7]", "result": 37.2, "unit": "%"}]}
